Test results: patent US20250003008A1, “METHODS FOR TREATMENT OF CANCER” (The Johns Hopkins University, priority 2021, published 2025)
Where two headings read alike, the source gives them in different places.

Assays:
[1] = Experimental: PrE0505, a phase 2 single arm multicenter study, enrolled human patients with previously untreated unresectable MPM (NCT02899195, FIG. 1). […] Patients with stable or responding tumors after concurrent therapy, continued on maintenance durvalumab for a maximum duration of one year from the first study treatment. A protocol-defined safety review was performed after enrollment of the first 6 and 15 patients. Pre-specified dose-limiting toxicities during the safety run-in period included any immune-mediated adverse event of ≥grade 4 or any non-resolving immune-mediated adverse event of ≥grade 3 during the first two cycles of therapy.
Imaging was performed every 6 weeks during the concurrent phase of treatment and every 9 weeks during maintenance durvalumab. Best objective response was evaluated by RECIST Version 1.1 criteria modified for mesothelioma. Toxicity was determined using the CTCAE Version 4.03 criteria.
Secondary objectives included safety and tolerability of durvalumab and durvalumab in combination with chemotherapy in subjects with malignant pleural mesothelioma, percentage of patients progression-free at 24 weeks from the time of registration (response coded based on modified RECIST 1.1 criteria for mesothelioma), progression-free survival-measured from the time of study registration until radiologic progression, clinical progression or death, best objective response rate with evaluation continued up to 1 year (response coded based on modified RECIST Version 1.1 criteria for mesothelioma). Exploratory objectives included assessment of tumor baseline PD-L1 expression, the genomic and neoantigen landscape of tumors, dynamics of circulating cell free tumor DNA and other blood-based biomarkers.

[2] = system: malignant pleural mesothelioma; details: historical control, phase 3 study; cited from earlier work
[3] = of the patients who received that agent within the regimen

Compound	patients who received a dose reduction due to toxicity [1, 3]	also measured
durvalumab	no patients	–
Nc1nc2[nH]cc(CCc3ccc(C(=O)N[C@@H](CCC(=O)O)C(=O)O)cc3)c2c(=O)[nH]1 [pemetrexed]	–	patients who received a dose reduction due to toxicity ([1]; human, in vivo): 2%
N.N.[Cl][Pt][Cl] [cisplatin]	–	survival [2]: 9.3 months
N.N.O=C([O-])C1(C(=O)[O-])CCC1.[Pt+2] [carboplatin]	12%	–
